Measured values: PubChem BioAssay AID180 (DTP/NCI, 2004)
Where “and” joins values, the source holds several entries; their conditions need not be identical. Equal entries are not always repeated.

Test system: BDF1 mice, Adenocarcinoma 755 s.c., tumor weight T/C
Assay: NCI In Vivo Anticancer Drug Screen. Data for tumor model Adenocarcinoma 755 (subcutaneous) in B6D2F1 (BDF1) mice
Conditions: endpoint: mean tumor weight, higher = larger tumour
Method in brief: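 Tumor-bearing mice receive test compound while controls get vehicle alone. Antitumor effect is scored from survival or tumor dimensions as a T/C quotient.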

[1] = dose: 200.0 mg/kg/injection, schedule: Q01DX011 (ip), vehicle: carboxymethylcellulose (CMC)

## OCC1OC(n2cnc3c(=S)nc[nH]c32)C(O)C1O (stereo not given)
dose: 0.28 mg/kg/injection, schedule: Q01DX011 (ip), vehicle: carboxymethylcellulose (CMC)
  T/C: 47 % of control
dose: 0.5 mg/kg/injection, schedule: Q01DX011 (ip), vehicle: saline
  T/C: 31 % of control
dose: 0.56 mg/kg/injection, schedule: Q01DX011 (ip), vehicle: carboxymethylcellulose (CMC)
  T/C: 100 % of control
dose: 1.0 mg/kg/injection, schedule: Q01DX011 (oral), vehicle: methylcellulose (MC)
  T/C: 59 % of control
dose: 1.0 mg/kg/injection, schedule: Q01DX011 (oral), vehicle: saline
  T/C: 63 % of control
dose: 1.12 mg/kg/injection, schedule: Q01DX011 (ip), vehicle: carboxymethylcellulose (CMC)
  T/C: 30 % of control
dose: 1.25 mg/kg/injection, schedule: Q01DX011 (ip), vehicle: saline
  T/C: 26 % of control
dose: 1.5 mg/kg/injection, schedule: Q01DX011 (ip), vehicle: carboxymethylcellulose (CMC)
  T/C: 65 % of control
dose: 2.0 mg/kg/injection, schedule: Q01DX011 (oral), vehicle: methylcellulose (MC)
  T/C: 9 % of control
dose: 2.0 mg/kg/injection, schedule: Q01DX011 (oral), vehicle: saline
  T/C: 47 % of control
dose: 2.23 mg/kg/injection, schedule: Q01DX011 (ip), vehicle: carboxymethylcellulose (CMC)
  T/C: 4 % of control and 7 % of control
dose: 2.5 mg/kg/injection, schedule: Q01DX011 (ip), vehicle: carboxymethylcellulose (CMC)
  T/C: 34 % of control
dose: 3.0 mg/kg/injection, schedule: Q01DX011 (oral), vehicle: methylcellulose (MC)
  T/C: 14 % of control
dose: 3.75 mg/kg/injection, schedule: Q01DX011 (ip), vehicle: carboxymethylcellulose (CMC)
  T/C: 6 % of control and 12 % of control
dose: 4.0 mg/kg/injection, schedule: Q01DX011 (oral), vehicle: methylcellulose (MC)
  T/C: 4 % of control
dose: 4.0 mg/kg/injection, schedule: Q01DX011 (oral), vehicle: saline
  T/C: 9 % of control
dose: 4.47 mg/kg/injection, schedule: Q01DX011 (ip), vehicle: carboxymethylcellulose (CMC)
  T/C: 10 % of control
dose: 5.0 mg/kg/injection, schedule: Q01DX011 (oral), vehicle: methylcellulose (MC)
  T/C: 3 % of control
dose: 7.5 mg/kg/injection, schedule: Q01DX011 (ip), vehicle: carboxymethylcellulose (CMC)
  T/C: 5 % of control and 8 % of control
dose: 8.0 mg/kg/injection, schedule: Q01DX011 (oral), vehicle: saline
  T/C: 7 % of control
dose: 8.94 mg/kg/injection, schedule: Q01DX011 (ip), vehicle: carboxymethylcellulose (CMC)
  T/C: 5 % of control
dose: 10.0 mg/kg/injection, schedule: Q01DX006 (iv), vehicle: saline
  T/C: 2 % of control
dose: 10.0 mg/kg/injection, schedule: Q01DX011 (ip), vehicle: saline
  T/C: 4 % of control
dose: 10.0 mg/kg/injection, schedule: Q01DX011 (oral), vehicle: methylcellulose (MC)
  T/C: 2 % of control
dose: 10.0 mg/kg/injection, schedule: Q01DX011 (sc), vehicle: saline
  T/C: 4 % of control
dose: 10.0 mg/kg/injection, schedule: Q03DX004 (im), vehicle: saline
  T/C: 3 % of control
dose: 15.0 mg/kg/injection, schedule: Q01DX011 (ip), vehicle: carboxymethylcellulose (CMC)
  T/C: 2 % of control and 7 % of control
dose: 17.87 mg/kg/injection, schedule: Q01DX011 (ip), vehicle: carboxymethylcellulose (CMC)
  T/C: 6 % of control
dose: 18.75 mg/kg/injection, schedule: Q01DX011 (ip), vehicle: carboxymethylcellulose (CMC)
  T/C: 2 % of control
dose: 20.0 mg/kg/injection, schedule: Q01DX006 (iv), vehicle: saline
  T/C: 2 % of control
dose: 20.0 mg/kg/injection, schedule: Q01DX011 (ip), vehicle: saline
  T/C: 4 % of control
dose: 20.0 mg/kg/injection, schedule: Q01DX011 (sc), vehicle: saline
  T/C: 2 % of control
dose: 20.0 mg/kg/injection, schedule: Q03DX004 (im), vehicle: saline
  T/C: 2 % of control
dose: 25.0 mg/kg/injection, schedule: Q01DX011 (ip), vehicle: carboxymethylcellulose (CMC)
  T/C: 3 % of control
dose: 35.75 mg/kg/injection, schedule: Q01DX011 (ip), vehicle: carboxymethylcellulose (CMC)
  T/C: 5 % of control
dose: 37.5 mg/kg/injection, schedule: Q01DX011 (ip), vehicle: carboxymethylcellulose (CMC)
  T/C: 2 % of control and 5 % of control
dose: 40.0 mg/kg/injection, schedule: Q01DX006 (iv), vehicle: saline
  T/C: 3 % of control
dose: 40.0 mg/kg/injection, schedule: Q01DX010 (oral), vehicle: saline
  T/C: 3 % of control
dose: 40.0 mg/kg/injection, schedule: Q01DX011 (ip), vehicle: saline
  T/C: 3 % of control
dose: 40.0 mg/kg/injection, schedule: Q01DX011 (sc), vehicle: saline
  T/C: 4 % of control
dose: 40.0 mg/kg/injection, schedule: Q03DX004 (im), vehicle: saline
  T/C: 1 % of control
dose: 57.0 mg/kg/injection, schedule: Q01DX011 (ip), vehicle: carboxymethylcellulose (CMC)
  T/C: 9 % of control
dose: 71.5 mg/kg/injection, schedule: Q01DX011 (ip), vehicle: carboxymethylcellulose (CMC)
  T/C: 5 % of control
dose: 73.0 mg/kg/injection, schedule: Q01DX011 (ip), vehicle: carboxymethylcellulose (CMC)
  T/C: 4 % of control
dose: 75.0 mg/kg/injection, schedule: Q01DX011 (ip), vehicle: carboxymethylcellulose (CMC)
  T/C: 4 % of control
dose: 80.0 mg/kg/injection, schedule: Q01DX006 (iv), vehicle: saline
  T/C: 3 % of control
dose: 80.0 mg/kg/injection, schedule: Q01DX011 (ip), vehicle: alkali diluted with saline
  T/C: 4 % of control
dose: 80.0 mg/kg/injection, schedule: Q01DX011 (ip), vehicle: saline
  T/C: 5 % of control
dose: 80.0 mg/kg/injection, schedule: Q01DX011 (sc), vehicle: saline
  T/C: 4 % of control
dose: 80.0 mg/kg/injection, schedule: Q03DX004 (im), vehicle: saline
  T/C: 2 % of control
dose: 115.0 mg/kg/injection, schedule: Q01DX011 (ip), vehicle: carboxymethylcellulose (CMC)
  T/C: 3 % of control
dose: 120.0 mg/kg/injection, schedule: Q01DX011 (ip), vehicle: alkali diluted with saline
  T/C: 2 % of control and 3 % of control
dose: 143.0 mg/kg/injection, schedule: Q01DX011 (ip), vehicle: carboxymethylcellulose (CMC)
  T/C: 5 % of control
dose: 146.0 mg/kg/injection, schedule: Q01DX011 (ip), vehicle: carboxymethylcellulose (CMC)
  T/C: 6 % of control
dose: 150.0 mg/kg/injection, schedule: Q01DX011 (ip), vehicle: carboxymethylcellulose (CMC)
  T/C: 4 % of control
dose: 160.0 mg/kg/injection, schedule: Q01DX011 (ip), vehicle: alkali diluted with saline
  T/C: 3 % of control
[1]
  T/C: 6 % of control
dose: 225.0 mg/kg/injection, schedule: Q01DX011 (ip), vehicle: carboxymethylcellulose (CMC)
  T/C: 6 % of control
dose: 231.0 mg/kg/injection, schedule: Q01DX011 (ip), vehicle: carboxymethylcellulose (CMC)
  T/C: 5 % of control
dose: 250.0 mg/kg/injection, schedule: Q01DX011 (ip), vehicle: carboxymethylcellulose (CMC)
  T/C: 3 % of control
dose: 300.0 mg/kg/injection, schedule: Q01DX011 (ip), vehicle: carboxymethylcellulose (CMC)
  T/C: 7 % of control
dose: 320.0 mg/kg/injection, schedule: Q01DX001 (ip), vehicle: alkali diluted with saline
  T/C: 5 % of control and 7 % of control
dose: 320.0 mg/kg/injection, schedule: Q01DX001 (oral), vehicle: alkali diluted with saline
  T/C: 18 % of control
dose: 320.0 mg/kg/injection, schedule: Q03DX004 (ip), vehicle: alkali diluted with saline
  T/C: 1 % of control and 5 % of control
dose: 320.0 mg/kg/injection, schedule: Q03DX004 (oral), vehicle: alkali diluted with saline
  T/C: 2 % of control
dose: 320.0 mg/kg/injection, schedule: Q07DX002 (ip), vehicle: alkali diluted with saline
  T/C: 3 % of control and 7 % of control
dose: 320.0 mg/kg/injection, schedule: Q07DX002 (oral), vehicle: alkali diluted with saline
  T/C: 4 % of control
dose: 480.0 mg/kg/injection, schedule: Q01DX001 (ip), vehicle: alkali diluted with saline
  T/C: 4 % of control and 9 % of control
dose: 480.0 mg/kg/injection, schedule: Q01DX001 (oral), vehicle: alkali diluted with saline
  T/C: 8 % of control
dose: 480.0 mg/kg/injection, schedule: Q03DX004 (ip), vehicle: alkali diluted with saline
  T/C: 2 % of control and 3 % of control
dose: 480.0 mg/kg/injection, schedule: Q07DX002 (ip), vehicle: alkali diluted with saline
  T/C: 6 % of control
dose: 480.0 mg/kg/injection, schedule: Q07DX002 (oral), vehicle: alkali diluted with saline
  T/C: 7 % of control
dose: 640.0 mg/kg/injection, schedule: Q01DX001 (ip), vehicle: alkali diluted with saline
  T/C: 5 % of control
dose: 640.0 mg/kg/injection, schedule: Q01DX001 (oral), vehicle: alkali diluted with saline
  T/C: 9 % of control
dose: 640.0 mg/kg/injection, schedule: Q07DX002 (ip), vehicle: alkali diluted with saline
  T/C: 4 % of control
dose: 640.0 mg/kg/injection, schedule: Q07DX002 (oral), vehicle: alkali diluted with saline
  T/C: 3 % of control
dose: 960.0 mg/kg/injection, schedule: Q01DX001 (oral), vehicle: alkali diluted with saline
  T/C: 9 % of control
dose: 960.0 mg/kg/injection, schedule: Q07DX002 (oral), vehicle: alkali diluted with saline
  T/C: 6 % of control

## Cc1ccc(C(=O)OCC2OC(n3cnc4c(=S)nc(N)[nH]c43)C(OC(=O)c3ccc(C)cc3)C2OC(=O)c2ccc(C)cc2)cc1 (stereo not given)
dose: 100.0 mg/kg/injection, schedule: Q01DX011 (ip), vehicle: carboxymethylcellulose (CMC)
  T/C: 81 % of control
[1]
  T/C: 4 % of control and 12 % of control
